Assay [1] has as its system Kuramochi cells labeled with mApple-H2B. Description: IncuCyte cell proliferation assay. The format is cell-based. The note with it: Kuramochi RB-WT cells, 72 hours, cell count normalized to DMSO. The protocol: Example A3: IncuCyte® Cell Proliferation Assay
IncuCyte® assay was used to measure the effect of disclosed compounds on cell proliferation. Fluorescent microscopy images of cells were taken immediately after compound treatment and 72 hours later. Image analysis software was used to obtain cell counts as a function of compound concentration. Kuramochi cells labeled with mApple-H2B were seeded on 384-well assay-ready plates. Plates were placed in an IncuCyte® (Sartorius) and scanned at 0 and 72 hours. IncuCyte® software was used to count the number of fluorescent nuclei in each well. The fold change in cell count from 0 to 72 hours in wells treated with increasing compounds concentrations (10 pts, 1/2 log dilution, 20 μM top concentration) was normalized to DMSO control wells. The normalized cell counts were fit with dose response curves and a GI50 was calculated.

For assay [2], the target named is T1, CDK2/Cyclin E1 (Homo sapiens, UniProt P24941).
T1 construct: purchased Eurofins 14-475
Briefly: CDK2/Cyclin E1 Caliper LabChip EZ Reader mobility shift assay. In kind it is biochemical. The note with it: 2.5 nM CDK2/Cyclin E1, 100 μM ATP, 1.5 μM fluorescent peptide, 30 min preincubation; read-out: Caliper Assay (CDK2/CCNE1): IC50. As for the experimental part:
Example A1: CDK2/Cyclin E1 Caliper Assay
Inhibition of CDK2/Cyclin E1 activity in the presence of compounds of the present disclosure was evaluated using a Caliper LabChip® EZ Reader mobility shift assay. In the assay, CDK2/Cyclin E1 (Eurofins, 14-475) catalyzed the phosphorylation of a fluorescently tagged peptide 5-FAM-QSPKKG-CONH2 (PerkinElmer, FL Peptide 18) which induced a difference in capillary electrophoresis mobility. The peptide substrate and product were measured, and the conversion ratio was used to determine the inhibition (as % activity and IC50 values) of CDK2/Cyclin E1. Reactions contained 50 mM HEPES pH 7.5, 10 mM MgCl2, 1 mM EDTA, 2 mM DTT, 0.01% Brij35, 0.5 mg/mL BSA, 0.1% DMSO, 2.5 nM CDK2/Cyclin E1, 100 μM ATP, and 1.5 μM fluorescent peptide substrate.
Dose titrations of inhibitors in 100% DMSO were combined with 3.25 nM CDK2/Cyclin E1 and 130 μM of ATP in reaction buffer. The mixtures were incubated for 30 minutes before the addition of fluorescent peptide substrate to initiate the kinase reaction. The final conditions were 2.5 nM CDK2/Cyclin E1, 100 μM ATP, and 1.5 μM fluorescent peptide. The reactions were stopped after 100 minutes with the addition of EDTA (400 mM final EDTA concentration). The stopped reactions were analyzed on a Caliper LabChip® EZ Reader II. The conversion ratios were normalized to yield % activity, plotted against compound concentration, and fit to a four-parameter equation to determine the IC50 for each compound.

The structures appear in SMILES notation.

With `CNC(=O)[C@@H](NC(=O)[C@@H]1CCOC12CN(C(=O)[C@H]1CC1(C)C)C2)[C@@H](C)OCC1CCCCC1` (single isomer, unassigned) [I-35 2nd], the IC50 was above 20 µM in assay [1] and above 10 µM in assay [2].

Turning to `CNC(=O)[C@@H](NC(=O)[C@@H]1CN(C(=O)c2cnn(Cc3ccccc3)c2)CC12CN(C(=O)N(C)C1CC1)C2)[C@@H](C)OCC1CCCCC1` [Compound I-30, (S)-6-(1-benzyl-1H-pyrazole-4-carbonyl)-N8-((2S,3R)-3-(cyclohexylmethoxy)-1-(methylamino)-1-oxobutan-2-yl)-N2-cyclopropyl-N2-methyl-2,6-diazaspiro[3.4]octane-2,8-dicarboxamide], the IC50 in assay [1] was above 20 µM; in assay [2], 0.1 to 1 µM.

For `C[C@@H](OCC1CCCCC1)C(NC(=O)[C@@H]1CCOC12CN(C(=O)[C@H]1CC1(C)C)C2)C(=O)N1CCCCC1` (single isomer, unassigned) [I-29 1st], the IC50 is above 20 µM in assay [1] and above 10 µM in assay [2]. As to `CC(C)(C)OC(=O)N1CCC2(CC1)CN(C(=O)c1cncs1)CC2c1nnc(C(F)(F)c2ccc(Cl)c(Cl)c2)o1` (stereo not shown) [Compound I-14, tert-butyl 4-(5-((3,4-dichlorophenyl)difluoromethyl)-1,3,4-oxadiazol-2-yl)-2-(thiazole-5-carbonyl)-2,8-diazaspiro[4.5]decane-8-carboxylate], the IC50 in assay [1] is 5 to 20 µM; in assay [2], above 10 µM. `O=C(c1cncs1)N1CC(c2nnc(C(F)(F)c3ccc(Cl)c(Cl)c3)o2)C2(CC(C(=O)N3CCC3)C2)C1` (stereo not shown) [Compound I-3] had an IC50 in assay [1] above 20 µM. Turning to `CC(=O)N1CC(c2nnc(C(F)(F)c3ccc(Cl)c(Cl)c3)o2)C2(CCOCC2)C1` (stereo not shown) [Compound I-7], the IC50 in assay [1] is above 20 µM; in assay [2] it was above 10 µM. `Cc1ccc(CNC(=O)[C@@H]2CN(C(=O)c3cnn(Cc4ccccc4)c3)CC23CN(C(=O)[C@H]2CC2(C)C)C3)nn1` [Compound I-20]: the IC50 was above 20 µM in assay [1] and above 10 µM in assay [2]. For `CNC(=O)[C@@H](NC(=O)[C@H]1CCOC12CN(C(=O)[C@H]1CC1(C)C)C2)[C@@H](C)OCC1CCCCC1` (single isomer, unassigned) [I-35 1st] the same measures were above 20 µM and above 10 µM. Take `O=C(c1cnccn1)N1CC(c2nnc(C(F)(F)c3ccc(Cl)c(Cl)c3)o2)C2(CCOCC2)C1` (stereo not shown) [Compound I-10]: the IC50 is above 20 µM in assay [1] and above 10 µM in assay [2]. Taken in the same sequence, the figures for `C[C@@H](OCC1CCCCC1)[C@H](NC(=O)C1CS(=O)(=O)CC12CN(C(=O)[C@H]1CC1(C)C)C2)C(=O)N1CCCCC1` (stereo partly drawn) [Compound I-26, N-((2S,3R)-3-(cyclohexylmethoxy)-1-oxo-1-(piperidin-1-yl)butan-2-yl)-2-((S)-2,2-dimethylcyclopropane-1-carbonyl)-6-thia-2-azaspiro[3.4]octane-8-carboxamide 6,6-dioxide] were above 20 µM and above 10 µM. In the case of `C[C@@H](OCC1CCCCC1)[C@H](NC(=O)[C@@H]1CN(C(=O)OC(C)(C)C)CC12CN(C(=O)[C@H]1CC1(C)C)C2)C(=O)N1CCCCC1` [Compound I-38], the IC50 in assay [1] is above 20 µM; in assay [2], 1 to 10 µM.

Take `C[C@@H](OCC1CCCCC1)[C@H](NC(=O)[C@@H]1CNCC12CN(C(=O)[C@H]1CC1(C)C)C2)C(=O)N1CCCCC1` [Compound I-37, (S)—N-((2S,3R)-3-(cyclohexylmethoxy)-1-oxo-1-(piperidin-1-yl)butan-2-yl)-2-((S)-2,2-dimethylcyclopropane-1-carbonyl)-2,6-diazaspiro[3.4]octane-8-carboxamide]: the IC50 in assay [1] was above 20 µM; in assay [2], above 10 µM. Taken in the same sequence, the figures for `CC1(C)C[C@@H]1C(=O)N1CCC2(CC1)CN(C(=O)c1cncs1)CC2c1nnc(C(F)(F)c2ccc(Cl)c(Cl)c2)o1` (stereo partly drawn) [Compound I-15, (4-(5-((3,4-dichlorophenyl)difluoromethyl)-1,3,4-oxadiazol-2-yl)-2-(thiazole-5-carbonyl)-2,8-diazaspiro[4.5]decan-8-yl)((S)-2,2-dimethylcyclopropyl)methanone] were above 20 µM and above 10 µM.

Consider `O=C(c1cncs1)N1CC(c2nnc(C(F)(F)c3ccc(Cl)c(Cl)c3)o2)C2(CCC2)C1` (stereo not shown) [Compound I-11, (8-(5-((3,4-dichlorophenyl)difluoromethyl)-1,3,4-oxadiazol-2-yl)-6-azaspiro[3.4]octan-6-yl)(thiazol-5-yl)methanone], for which the IC50 in assay [1] was above 20 µM; in assay [2], above 10 µM. For the compound `C[C@@H](OCC1CCCCC1)[C@H](NC(=O)[C@@H]1CCOC12CN(C(=O)[C@H]1CC1(C)C)C2)C(=O)N1CCC[C@@H](N)C1` (single isomer, unassigned) [I-34 1st], the values for the IC50 in assay [1] and in assay [2] were above 20 µM and above 10 µM, respectively.

`C[C@@H](OCC1CCCCC1)[C@H](NC(=O)[C@H]1CCOC12CN(C(=O)[C@H]1CC1(C)C)C2)C(=O)N1CCC[C@@H](N)C1` (single isomer, unassigned) [I-34 2nd]: the IC50 in assay [1] was above 20 µM; in assay [2], above 10 µM. For `O=C(c1cncs1)N1CC(c2nnc(C(F)(F)c3ccc(Cl)c(Cl)c3)o2)C2(CCN(C(=O)[C@H]3CC3(F)F)CC2)C1` (stereo partly drawn) [Compound I-2, (4-(5-((3,4-dichlorophenyl)difluoromethyl)-1,3,4-oxadiazol-2-yl)-2-(thiazole-5-carbonyl)-2,8-diazaspiro[4.5]decan-8-yl)((R)-2,2-difluorocyclopropyl)methanone] the same measures were above 20 µM and above 10 µM.

For the compound `C[C@@H](OCC1CCCCC1)[C@H](NC(=O)C1CSCC12CN(C(=O)[C@H]1CC1(C)C)C2)C(=O)N1CCCCC1` (stereo partly drawn) [Compound I-23, N-((2S,3R)-3-(cyclohexylmethoxy)-1-oxo-1-(piperidin-1-yl)butan-2-yl)-2-((S)-2,2-dimethylcyclopropane-1-carbonyl)-6-thia-2-azaspiro[3.4]octane-8-carboxamide], the results for the IC50 in assay [1] and in assay [2] were above 20 µM and above 10 µM, respectively. As to `C[C@@H](OCC1CCCCC1)[C@H](NC(=O)[C@H]1CCOC12CN(C(=O)[C@H]1CC1(C)C)C2)C(=O)N1CCCCC1` (single isomer, unassigned) [I-29 2nd], the IC50 in assay [1] is above 20 µM; in assay [2] it was above 10 µM. Taken in the same sequence, the figures for `COC[C@H]1CCCN(C(=O)[C@@H](NC(=O)[C@H]2CN(C(=O)c3cncs3)CC23CN(C(=O)[C@H]2CC2(C)C)C3)[C@@H](C)OCC2CCCCC2)C1` [Compound I-21] were 5 to 20 µM and 0.1 to 1 µM. On to `O=C(c1cncs1)N1CC(c2nnc(C(F)(F)c3ccc(Cl)c(Cl)c3)o2)C2(CCNCC2)C1` (stereo not shown) [Compound I-9], for which the IC50 in assay [1] was above 20 µM; in assay [2] it was above 10 µM. For `C[C@@H](OCC1CCCCC1)[C@H](NC(=O)[C@@H]1CN(C(=O)OC(C)(C)C)CC12CN(C(=O)[C@H]1CC1(C)C)C2)C(=O)N1CCOCC1` [Compound I-33] the same measures were above 20 µM and 1 to 10 µM.

For the compound `CC1(C)C[C@@H]1C(=O)N1CC2(CN(C(=O)c3cncs3)CC2C#N)C1` (stereo partly drawn) [Compound I-27, 2-((S)-2,2-dimethylcyclopropane-1-carbonyl)-6-(thiazole-5-carbonyl)-2,6-diazaspiro[3.4]octane-8-carbonitrile], the IC50 in assay [1] is above 20 µM; in assay [2], above 10 µM. Consider `CC(=O)N1C[C@@H](C(=O)N[C@H](C(=O)N2CCOCC2)[C@@H](C)OCC2CCCCC2)C2(C1)CN(C(=O)[C@H]1CC1(C)C)C2` [Compound I-36, (S)-6-acetyl-N-((2S,3R)-3-(cyclohexylmethoxy)-1-morpholino-1-oxobutan-2-yl)-2-((S)-2,2-dimethylcyclopropane-1-carbonyl)-2,6-diazaspiro[3.4]octane-8-carboxamide], for which the IC50 in assay [1] is above 20 µM; in assay [2] it was above 10 µM. With `COC[C@H]1CCCN(C(=O)[C@@H](NC(=O)[C@@H]2CN(C(=O)c3cncs3)CC23CN(S(=O)(=O)C2CC2(C)C)C3)[C@@H](C)OCC2CCCCC2)C1` (stereo partly shown) [Compound I-18], the IC50 in assay [2] is 1 to 10 µM. Regarding `CC1(C)C[C@@H]1C(=O)N1CC2(CN(C(=O)c3cnn(Cc4ccccc4)c3)CC2C#N)C1` (stereo partly drawn) [Compound I-40, 6-(1-benzyl-1H-pyrazole-4-carbonyl)-2-((S)-2,2-dimethylcyclopropane-1-carbonyl)-2,6-diazaspiro[3.4]octane-8-carbonitrile], in assay [2], the IC50 is above 10 µM.

These data come from patent US20260152494A1, “CDK2 INHIBITORS AND METHODS OF USING THE SAME” (Cedilla Therapeutics, Inc., priority 2022, published 2026).
